# Experimental data taken from patent US20080081788A1, “Diagnosis and treatment for immunoglobulin E (IgE) implicated disorders” (priority 2002, published 2008).
# Like-named read-outs stand apart in the source and are kept apart here. Ends that are not written are not given here.
# Legend:
# [1] = format: in vivo, human; conditions: seven days, compared with expt #1 and #2
# IgE = format: in vivo, human; conditions: for IgE levels in saliva: ELISA titer, Normal 16200, Glucotrol 15 mg/day, LT-10 2 mg/day or both
# NGF = format: in vivo, human; conditions: for NGF levels in saliva: ELISA titer, Normal 1200, Glucotrol 15 mg/day, LT-10 2 mg/day or both
# Insulin = format: in vivo, human; parameters: Insulin levels in saliva: unit not given here; conditions: for Insulin levels in saliva: ELISA titer, Normal 600, Glucotrol 15 mg/day, LT-10 2 mg/day or both
# Myoglobin = format: in vivo, human; conditions: for Myoglobin levels in saliva: ELISA titer, Normal 1800, Glucotrol 15 mg/day, LT-10 2 mg/day or both
# [2] = in vivo
compound,measurement,setting,value
Cc1cnc(C(=O)NCCc2ccc(S(=O)(=O)NC(=O)NC3CCCCC3)cc2)cn1 [Glucotrol],"effect on glucose level, in words",[1],did not make appreciable difference
same,IgE levels in saliva,IgE; Day 1,145800
same,IgE levels in saliva,IgE; Day 2,148600
same,IgE levels in saliva,IgE; Day 3,145800
same,IgE levels in saliva,IgE; Day 4,148600
same,IgE levels in saliva,IgE; Day 5,148600
same,IgE levels in saliva,IgE; Day 6,145800
same,IgE levels in saliva,IgE; Day 7,145800
same,"effect on IgE levels in saliva, in words",IgE; treatment for seven days,does not contribute in lowering IgE levels
same,NGF levels in saliva,NGF; Day 1,2700
same,NGF levels in saliva,NGF; Day 2,8100
same,NGF levels in saliva,NGF; Day 3,5400
same,NGF levels in saliva,NGF; Day 4,5400
same,NGF levels in saliva,NGF; Day 5,2700
same,NGF levels in saliva,NGF; Day 6,2700
same,NGF levels in saliva,NGF; Day 7,5400
same,"effect on NGF levels in saliva, in words",NGF; treatment for seven days,perhaps increases NGF levels
same,Insulin levels in saliva,Insulin; Day 1,1200
same,Insulin levels in saliva,Insulin; Day 2,800
same,Insulin levels in saliva,Insulin; Day 3,800
same,Insulin levels in saliva,Insulin; Day 4,900
same,Insulin levels in saliva,Insulin; Day 5,750
same,Insulin levels in saliva,Insulin; Day 6,800
same,Insulin levels in saliva,Insulin; Day 7,900
same,"effect on Insulin levels in saliva, in words",Insulin; treatment for seven days,contributes m lowering Insulin levels
same,Myoglobin levels in saliva,Myoglobin; Day 1,1800
same,Myoglobin levels in saliva,Myoglobin; Day 2,3600
same,Myoglobin levels in saliva,Myoglobin; Day 3,3600
same,Myoglobin levels in saliva,Myoglobin; Day 4,2700
same,Myoglobin levels in saliva,Myoglobin; Day 5,2700
same,Myoglobin levels in saliva,Myoglobin; Day 6,2700
same,Myoglobin levels in saliva,Myoglobin; Day 7,3500
same,myoglobin level at completion point (FIG. 1),"Myoglobin; end of seven days, times the normal level",increased the level of myoglobin
same,"effect on myoglobin levels in saliva, in words",Myoglobin; treatment for seven days,contributes in increasing myoglobin levels
LKAMDPTPPL [LT-10],side effects,[2],no observable side effects
